Source: patent publication US20260209262A1, “MEMBRANE FILTRATION-ASSISTED SOLUTION PHASE OLIGONUCLEOTIDE SYNTHESIS” (EXACTMER LIMITED, priority 2022, published 2026)
Converted amounts (≈) assume the structure as drawn.

Test: Solubility of protected phosphoramidites in acetonitrile (aliquots added until a clear solution)
Type: physicochemical
Conditions: for Solubility: 30° C.
Method: A range of 5′-O-Dmtr-nucleoside-3′-O-(cyanoethyl-N, N-diisopropyl) phosphoramidites (FIG. 1. compounds 1-5) were studied to determine their suitability for solution-phase oligonucleotide synthesis in acetonitrile. Each compound (ca. 0.5 g) was placed in a flask with a magnetic stirrer immersed in an oil bath held at 30° C. To the flask was added acetonitrile (0.200 mL) and the contents stirred for 2 min. After this, further aliquots of acetonitrile (0.050 mL) were added, each time followed by stirring for 2 min. The volume of acetonitrile required to establish a clear solution was recorded. The solubility so determined is recorded in Table 1.

**Q.** Which “solubility in acetonitrile” value does the source give for `COc1ccc(C(OC[C@H]2O[C@@H](n3ccc(=O)[nH]c3=O)[C@H](OC)[C@@H]2OP(OCCC#N)N(C(C)C)C(C)C)(c2ccccc2)c2ccc(OC)cc2)cc1` (some centres unmarked) [Compound 1a] here?
**A.** 50 mM (≈ 38 mg/mL)

**Q.** And the “Solubility” value?
**A.** 70 mM (≈ 53.3 mg/mL)

**Q.** With `COc1ccc(C(OC[C@H]2O[C@@H](n3ccc(=O)n(C(=O)c4ccccc4)c3=O)[C@H](OC)[C@@H]2OP(OCCC#N)N(C(C)C)C(C)C)(c2ccccc2)c2ccc(OC)cc2)cc1` (some centres unmarked) [Compound 1b] as the molecule, how does the “Solubility” value read?
**A.** 1920 mM (≈ 1660 mg/mL)

**Q.** With `COc1ccc(C(OCC2OC(n3ccc(=O)n(C(=O)c4ccc(C(C)(C)C)cc4)c3=O)C(OC)C2OP(OCCC#N)N(C(C)C)C(C)C)(c2ccccc2)c2ccc(OC)cc2)cc1` (centres unmarked) [Compound 1c] as the molecule, how does the “Solubility” value read?
**A.** 1740 mM (≈ 1600 mg/mL)

**Q.** With `COc1ccc(C(=O)n2c(=O)ccn(C3OC(COC(c4ccccc4)(c4ccc(OC)cc4)c4ccc(OC)cc4)C(OP(OCCC#N)N(C(C)C)C(C)C)C3OC)c2=O)cc1` (centres unmarked) [Compound 1d] as the molecule, how does the “Solubility” value read?
**A.** 2420 mM (≈ 2170 mg/mL)

**Q.** With `COc1ccc(C(OCC2OC(n3cc(C)c(=O)[nH]c3=O)CC2OP(OCCC#N)N(C(C)C)C(C)C)(c2ccccc2)c2ccc(OC)cc2)cc1` (centres unmarked) [Compound 2a] as the molecule, how does the “Solubility” value read?
**A.** 1160 mM (≈ 864 mg/mL)

**Q.** Which “Solubility” value does the source give for `COc1ccc(C(OC[C@H]2O[C@@H](n3cc(C)c(=O)n(C(=O)c4ccccc4)c3=O)C[C@@H]2OP(OCCC#N)N(C(C)C)C(C)C)(c2ccccc2)c2ccc(OC)cc2)cc1` (some centres unmarked) [Compound 2b] here?
**A.** 1530 mM (≈ 1300 mg/mL)

**Q.** What about the “increase in solubility by protection of N3” value (relative to unprotected 2a) of the same molecule?
**A.** more than 30%

**Q.** For `COc1ccc(C(OC[C@H]2O[C@@H](n3ccc(NC(C)=O)nc3=O)[C@H](OC)[C@@H]2OP(OCCC#N)N(C(C)C)C(C)C)(c2ccccc2)c2ccc(OC)cc2)cc1` (some centres unmarked) [Compound 3], which “Solubility” value is on record?
**A.** 1300 mM (≈ 1040 mg/mL)

**Q.** Which “Solubility” value does the source give for `COc1ccc(C(OCC2OC(n3cnc4c(NC(=O)c5ccccc5)ncnc43)C(OC)C2OP(OCCC#N)N(C(C)C)C(C)C)(c2ccccc2)c2ccc(OC)cc2)cc1` (centres unmarked) [Compound 4] here?
**A.** 1210 mM (≈ 1070 mg/mL)

**Q.** Which “Solubility” value does the source give for `COc1ccc(C(OCC2OC(n3cnc4c(=O)[nH]c(NC(=O)C(C)C)nc43)C(OC)C2OP(OCCC#N)N(C(C)C)C(C)C)(c2ccccc2)c2ccc(OC)cc2)cc1` (centres unmarked) [Compound 5] here?
**A.** 1280 mM (≈ 1110 mg/mL)
